From paper PMC9314723, “The aqueous stability and interactions of organoruthenium compounds with serum proteins, cell culture medium, and human serum” (Metallomics: Integrated Biometal Science, 2022)

Columns and labels:
[1] = CZE stability study in H2O and 20 mM phosphate buffer (pH 7.4); type: physicochemical; conditions: 200 μM; for Stability in water (peak areas of cationic species constant): complex cations of 2 and 3, or initial aquation products of 1 and 3, CZE over 24 h
Experimental: Stability studies of complexes 1–3 were carried out in both H2O and 20 mM phosphate buffer (pH 7.4). Stock solutions for the complexes were prepared in methanol (2 mM). The samples were diluted just before the first measurement to a final complex concentration of 200 μM. Tris(acetylacetonato)cobalt(III) [Co(acac)3] was added as an internal standard to all samples at a final concentration of 100 μM. The stability was studied for 24 h by monitoring changes in the peak areas over time.
(§1) All measurements were performed in at least triplicate on a CE system G7100 (Agilent, Waldbronn, Germany) equipped with a long-life deuterium lamp (8 pin) with an radio-frequency identification (RFID) tag. A capillary (fused silica, 50 μm ID, Polymicro Technologies) with a total length of 50 cm and an effective length of 40 cm was installed for the separation with ultraviolet (UV) detection. The capillary zone electrophoresis (CZE)–UV data and peak areas presented were recorded at 200 nm, while the internal standard signal was recorded at 254 nm in the samples containing αMEM and human serum, as other neutral species were overlapping the signal at 200 nm. For HSA binding site studies, 210 nm was selected as the evaluation wavelength.
(§2) New capillaries were conditioned with HCl (0.1 M) and H2O followed by NaOH (1.0 M) and H2O for 10 min each followed by flushing with BGE [phosphate buffer (20 mM, pH 7.4)] for 20 min. The same procedure was carried out as daily conditioning. The capillary was flushed with BGE (3 min) before each run and was rinsed with HCl (0.1 M; 30 s), H2O (30 s), NaOH (1.0 M, 2 min), and H2O (2 min) after each separation. The sample tray and the capillary were kept at 25°C. Samples were injected hydrodynamically (50 mbar for 5 s) and the voltage applied was +20 kV for 5 min. The current reading was 23–24 μA.

[2] = molecular target: T1, HSA (Homo sapiens, UniProt P02768); assay: CZE interaction study with HSA; type: binding
T1 construct: purchased Sigma-Aldrich A3782
T1 sequence (P02768 25-609): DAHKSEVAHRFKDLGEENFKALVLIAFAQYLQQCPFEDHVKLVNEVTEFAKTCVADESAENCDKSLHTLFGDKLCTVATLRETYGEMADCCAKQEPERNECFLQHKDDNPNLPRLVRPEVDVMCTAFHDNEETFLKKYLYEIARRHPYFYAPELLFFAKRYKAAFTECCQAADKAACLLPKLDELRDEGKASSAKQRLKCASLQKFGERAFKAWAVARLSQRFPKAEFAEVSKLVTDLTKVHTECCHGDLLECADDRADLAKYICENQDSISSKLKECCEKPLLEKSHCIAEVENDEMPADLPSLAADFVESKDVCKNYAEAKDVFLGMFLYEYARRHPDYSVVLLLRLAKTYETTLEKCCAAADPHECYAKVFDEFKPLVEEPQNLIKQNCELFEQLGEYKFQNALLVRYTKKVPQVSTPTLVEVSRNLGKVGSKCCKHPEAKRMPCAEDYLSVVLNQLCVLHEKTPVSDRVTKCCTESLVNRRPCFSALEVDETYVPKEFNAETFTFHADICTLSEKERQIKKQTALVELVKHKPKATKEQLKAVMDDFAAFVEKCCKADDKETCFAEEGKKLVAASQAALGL
Experimental: (§3) Stock solutions of HSA and Tf in BGE were prepared (400 μM). Studies were performed for 1 and 2 at complex (200 μM):protein ratios of 1:1, 10:1, and 20:1. The PCA complex 3 was investigated at complex (200 μM):protein ratios of 20:1 and 50:1 for HSA and at 10:1 and 20:1 for Tf. Samples were prepared just before the first measurement. BGE was used for dilution and [Co(acac)3] was added as the internal standard to all samples at a final concentration of 100 μM.
as §1, §2

[3] = molecular target: T2, Tf (Homo sapiens, UniProt P02787); assay: CZE interaction study with Tf; type: binding
T2 construct: purchased Sigma-Aldrich
T2 sequence (P02787 20-698): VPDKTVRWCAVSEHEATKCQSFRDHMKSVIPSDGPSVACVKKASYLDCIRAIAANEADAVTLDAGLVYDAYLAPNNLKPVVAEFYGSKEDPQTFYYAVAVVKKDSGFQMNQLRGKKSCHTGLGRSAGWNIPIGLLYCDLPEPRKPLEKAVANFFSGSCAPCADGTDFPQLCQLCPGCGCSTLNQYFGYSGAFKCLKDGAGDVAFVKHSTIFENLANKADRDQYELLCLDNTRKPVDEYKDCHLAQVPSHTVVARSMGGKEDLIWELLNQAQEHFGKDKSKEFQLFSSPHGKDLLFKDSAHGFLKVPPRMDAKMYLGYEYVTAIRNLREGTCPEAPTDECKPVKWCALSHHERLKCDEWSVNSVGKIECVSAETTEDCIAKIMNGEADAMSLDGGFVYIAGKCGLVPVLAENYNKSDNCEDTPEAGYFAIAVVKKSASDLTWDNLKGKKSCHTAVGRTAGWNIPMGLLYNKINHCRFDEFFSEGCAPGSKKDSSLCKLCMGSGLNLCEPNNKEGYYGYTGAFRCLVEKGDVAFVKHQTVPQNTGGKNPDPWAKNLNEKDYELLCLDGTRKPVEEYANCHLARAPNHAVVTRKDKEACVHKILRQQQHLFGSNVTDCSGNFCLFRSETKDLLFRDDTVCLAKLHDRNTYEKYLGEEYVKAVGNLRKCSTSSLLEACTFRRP
Experimental: as §3, §1, §2

[4] = molecular target: T3, HSA binding site II (Homo sapiens, UniProt P02768); assay: Competitive displacement study, HSA binding site II (Ds marker), CZE; conditions: for % Ds bound: Ds:HSA (100 μM) 2:1, n = 3
T3 construct: purchased Sigma-Aldrich A1653
T3 sequence (P02768 25-609): as the sequence (P02768 25-609) above
Experimental: The affinity of complex 1 for binding sites I and II on HSA was investigated with Wf as the site marker for binding site I and Ds for site II by tracking the peak area for unbound Wf and Ds, respectively. Stock solutions of Wf, Ds, and HSA were prepared in H2O at concentrations of 800, 800, and 200 μM, respectively. Wf or Ds were incubated with HSA (100 μM) at a ratio of 2:1 for at least 1 h at room temperature before complex 1 was added at final concentrations of 200, 400, or 800 μM. The final concentration of methanol was 10% in all samples. Calibration curves for Wf or Ds in the range of 50–300 μM were determined before the start of each displacement study, to allow for accurate quantification of the amounts of Ds or Wf displaced by complex 1.
as §1
(§4) For the binding site studies with HSA, a modified version of a CE method was applied.[21] Before each run, the capillary was flushed with BGE (2 min), then +28 kV voltage was applied for 30 s followed by 1 min of flushing with BGE and the capillary was rinsed with HCl (0.1 M; 2 min), H2O (2 min), NaOH (1.0 M, 2 min), and H2O (2 min) after each separation. The sample tray and the capillary were kept at 25°C. Samples were injected hydrodynamically (30 mbar for 5 s) and the voltage applied was +28 kV for 5 min. The current reading was 34 μA.

[5] = molecular target: T4, HSA binding site I (Homo sapiens, UniProt P02768); assay: Competitive displacement study, HSA binding site I (Wf marker), CZE; conditions: for % Wf bound: Wf:HSA (100 μM) 2:1, n = 3
T4 construct: purchased Sigma-Aldrich A1653
T4 sequence (P02768 25-609): as above
Experimental: The final concentration of methanol was 10% in all samples.
as §1, §4

[6] = molecular target: T2, Tf; assay: FT-ICR-MS adduct formation with Tf; type: binding; conditions: complex:Tf 5:1 in water
Experimental: The adduct formation between complex 1 and Tf was further studied using a Bruker Solarix XR 7 T FT–ICR–MS. A mixture of 1 and Tf in ratio 5:1 in H2O (18 MΩ, Millipore) was incubated for 24 h. A sample was collected after 0 and 24 h, and the samples were frozen until analysis. The samples were diluted 1:100 with 0.1% formic acid in H2O (18 MΩ, Millipore) prior to analysis, producing a final concentration of 2 μM for complex 1 and 0.4 μM for Tf. A separate standard of Tf at 0.4 μM was also prepared and analyzed.

[7] = Aqueous solubility; type: physicochemical
[8] = tested on: human cancer cells; conditions: cited from earlier work
[9] = parameters: method as in PMID 31357065; conditions: cited from earlier work
[10] = CZE interaction study with cell culture medium; type: in vitro ADME; conditions: complex 200 μM, medium diluted 1:10, complex:albumin 133:1
Experimental: The interactions of complexes 1–3 with cell culture medium (αMEM with 5% FBS) were investigated. The αMEM was diluted 1:10 with BGE and the complex concentrations were kept at 200 μM and [Co(acac)3] at 100 μM. The dilution corresponded to a complex:albumin ratio of 133:1.
as §1
(§5) New capillaries were conditioned with HCl (0.1 M) and H2O followed by NaOH (1.0 M) and H2O for 10 min each followed by flushing with BGE [phosphate buffer (20 mM, pH 7.4)] for 20 min. The same procedure was carried out as daily conditioning. […] The current reading was 23–24 μA.

[11] = CZE interaction study with human serum; type: in vitro ADME; conditions: complex 200 μM, serum diluted 1:100, complex:albumin about 50:1
Experimental: The interactions of complexes 1–3 with human serum were investigated after diluting the serum 1:100 with BGE and the complex concentrations were kept at 200 μM and for [Co(acac)3] at 100 μM. The dilution corresponded to a complex:protein ratio of about 50:1 with regard to albumin content.
as §1, §5

[12] = tested on: plectin; parameters: method as in earlier work; conditions: cited from earlier work
[13] = tested on: HSA and Tf; parameters: method as in PMID 15907879; conditions: cited from earlier work

## Cc1ccc(C(C)C)cc1.[Cl-].[O-]c1cccc2cccnc12.[Ru+2] [Complex 1, [Ru^II(cym)(8-HQ)Cl]]
[1]; migration relative to EOF marker [Co(acac)3]
  Speciation on dilution with water or BGE: underwent ligand exchange to form a cationic species
[1]
  Stability in water (peak areas of cationic species constant): at least 24 h
[2]; complex (200 μM):HSA 1:1
  Binding to HSA, complex peak: complex peak was not detectable in the first run
[2]; complex (200 μM):HSA 10:1, over 2 h
  Binding to HSA: majority of complex 1 was found attached to either protein
[2]; complex (200 μM):HSA 20:1, after 2 h
  Fraction of complex remaining unbound: about a quarter to a third
[3]; complex (200 μM):Tf 1:1
  Binding to Tf, complex peak: complex peak was not detectable in the first run
[3]; complex (200 μM):Tf 10:1, over 2 h
  Binding to Tf: majority of complex 1 was found attached to either protein
[3]; complex (200 μM):Tf 20:1, after 2 h
  Fraction of complex remaining unbound: about a quarter to a third
[4]; 200 μM complex 1, 0 h
  % Ds bound: 44 ± 6%
[4]; 200 μM complex 1, 24 h
  % Ds bound: 50 ± 7%
[4]; 200 μM complex 1, 48 h
  % Ds bound: 45 ± 7%
[4]; 400 μM complex 1, 0 h
  % Ds bound: 35 ± 7%
[4]; 400 μM complex 1, 24 h
  % Ds bound: 19 ± 11%
[4]; 400 μM complex 1, 48 h
  % Ds bound: 33 ± 7%
[4]; 800 μM complex 1, 0 h
  % Ds bound: Fully displaced
[4]; 800 μM complex 1, 24 h
  % Ds bound: Fully displaced
[4]; 800 μM complex 1, 48 h
  % Ds bound: Fully displaced
[4]; at higher molar ratios
  Binding to site II on HSA (displacement of Ds): binds to both sites I and II on HSA
[5]; 200 μM complex 1, 0 h
  % Wf bound: 58 ± 4%
[5]; 200 μM complex 1, 24 h
  % Wf bound: 59 ± 4%
[5]; 200 μM complex 1, 48 h
  % Wf bound: 51 ± 4%
[5]; 400 μM complex 1, 0 h
  % Wf bound: 26 ± 9%
[5]; 400 μM complex 1, 24 h
  % Wf bound: 23 ± 5%
[5]; 400 μM complex 1, 48 h
  % Wf bound: 33 ± 8%
[5]; 800 μM complex 1, 0 h
  % Wf bound: Fully displaced
[5]; 800 μM complex 1, 24 h
  % Wf bound: Fully displaced
[5]; 800 μM complex 1, 48 h
  % Wf bound: Fully displaced
[5]; at higher molar ratios
  Binding to site I on HSA (displacement of Wf): binds to both sites I and II on HSA
[6]; after 24 h
  Adducts formed with Tf: [Tf + 3 Ru(cym)(8-HQ)] was dominant
[6]; immediately after mixing (0 h)
  Adducts formed with Tf: adducts with one, two, and three Ru(cym)(8-HQ) moieties attached to the protein
[7]
  Aqueous solubility: limited aqueous solubility
[8]
  IC50 values (antiproliferative properties): low micromolar range
[9]
  Halido/aqua ligand exchange in aqueous environment (1H NMR): undergo halido/aqua ligand exchange quickly

## C1N2CN3CN1CP(C2)C3.Cc1ccc(C(C)C)cc1.O=S(=O)([O-])C(F)(F)F.[O-]c1cccc2cccnc12.[Ru+2] [Complex 2, [Ru^II(cym)(8-HQ)(PTA)](SO3CF3)]
[1]
  Stability in water (peak areas of cationic species constant): at least 24 h
[2]; complex (200 μM):HSA 1:1, 10:1, 20:1, over 1 d
  Interaction with HSA: does not interact with either protein
[3]; complex (200 μM):Tf 1:1, 10:1, 20:1, over 1 d
  Interaction with Tf: does not interact with either protein
[10]
  Interaction with αMEM spiked with 5% FBS: no interactions were observed
[11]
  Interaction with human serum: no interactions were observed
[9]
  Halido/aqua ligand exchange in aqueous environment (1H NMR): inert

## Cc1ccc(C(C)C)cc1.Fc1ccc(NC(=S)c2ccccn2)cc1.[Cl-].[Cl-].[Ru+2] [Complex 3, [Ru^II(cym)(PCA)Cl]Cl]
[1]
  Stability in water (peak areas of cationic species constant): at least 24 h
[2]; complex (200 μM):HSA 20:1 and 50:1, data not analysable
  Observation on incubation with HSA: precipitation
[3]; complex:Tf 10:1
  Decrease in Tf peak area: 62%
[3]; complex:Tf 20:1
  Decrease in Tf peak area: 82%
  Decrease in peak area of complex 3: 37%
[10]
  Interaction with αMEM spiked with 5% FBS: precipitation was observed
[11]
  Interaction with human serum: precipitation was observed
[8]
  IC50 values (antiproliferative properties): low micromolar range
[12]
  Protein target: specifically target the scaffold protein and cytolinker plectin

## [Cl-].[Cl-].[Cl-].[Cl-].[Ru+3].c1ccc2[nH][nH+]cc2c1.c1ccc2[nH]ncc2c1.c1ccc2[nH]ncc2c1 [KP1019, Indazolium Trans-[Tetrachlorobis(1H-Indazole)Ruthenate(III)]]
[13]
  Relative rate of binding to serum proteins: bind quicker to Tf than HSA
